“And” between values parts separate entries of the source, which are not always exact repeats. Identical values can stand only once.
Key:
Fusarium = assay: Field trial winter wheat 2017, visual assessment of Fusarium control; assay type: in vivo; conditions: Laacherhof 2017, application at growth stage 63-65, evaluation Jun. 20, 2017, J1446 500 g/ha, prothioconazole 125 g a.i./ha, control 38% infestation
Experimental: (§1) Impact of Different Compounds on Fusarium Infestation and the DON Content; Field Trial Winter Wheat 2017 at the Laacherhof, Germany
(§2) Application was done on Jun. 1, 2017 at growth stage 63-65. Evaluation was done Jun. 20, 2017. Quantification of deoxynivalenol was performed by LC-MS/MS analysis using a Waters UPLC coupled to a Sciex API4000 mass spectrometer. The column used was a Waters Acquity HSS T3 (2.1×50 mm, 1.8 μm) and solvents were 2 mM ammonium acetate/1% acedic acid and methanol/2 mM ammonium acetate/1% acetic acid used in a 4 min gradient. The mass spectrometer was operated in negative ionization mode (MRM transitions: deoxynivalenol 355>265, 3-acetyl-deoxynivalenol 387>307, respectively). Quantification was performed by external calibration using reference compounds.
(§3) On the other hand, whereas infestation was lower upon application of C. rosea J1446 alone (45 vs. 63%), DON reduction after application of the combination of prothioconazole and C. rosea J1446 was even bigger (60 vs. 30%).

DON content = assay: Field trial winter wheat 2017, deoxynivalenol quantification by LC-MS/MS; assay type: in vivo; conditions: Laacherhof 2017, application at growth stage 63-65, J1446 500 g/ha, prothioconazole 125 g a.i./ha, control 3583 ppb DON content
Experimental: as §1, §2, §3

OC(Cc1ccccc1Cl)(Cn1nc[nH]c1=S)C1(Cl)CC1 (stereo not drawn) [Prothioconazole, prothioconazole]
Visual Assessment Fusarium-Control (Fusarium): 66% | DON Reduction (DON content): 41% | DON Reduction (DON content; listed as prothioconazole): 40% and 41%

Reference: US20210176992A1, “FU[…] COMBINATION OF A CL[…] AND AN AZOLE” (Bayer Aktiengesellschaft, priority 2018, published 2021)
